Experimental data reported in PMC4169866 (Investigational New Drugs, 2014).
“Also recorded” adds a separate entry of the source. Counter-ions that a name gives are not always drawn. Values belong to the molecule of their own block, whether it stands above or below them.

Assays:
bRaf = bRaf (Homo sapiens, UniProt P15056); test: Biochemical kinase profiling bRaf
pERK HCT116 = test: pERK inhibition, HCT116; type: cell-based; conditions: Homo sapiens, HCT-116; read-out: pERK inh. HCT116 IC50
[1] = test system: Rb-proficient MDA-MB-231 breast cancer cells; test: Flow cytometry cell cycle distribution, MDA-MB-231; type: cell-based, human
Experimental: (§1) Flow cytometry was also used to determine cell cycle distribution in cell lines, as described in the supplemental materials.
(§2) Flow cytometry was used to determine cell cycle distribution in cell lines. Cells were cultured in growth media under subconfluent conditions and treated with indicated concentrations of compound solubilized in DMSO for 24 hours at 37°C/5% CO2. After treatment, cells were collected, washed once with 4° C PBS, and fixed with 70% ethanol/30% water at -20 °C for 30 minutes. Cells were then collected by centrifugation, washed once with PBS, and stained for 30 minutes at room temperature by the addition of 1 mL of propidium iodide/Triton X-100 staining solution (20µg/mL of propidium iodide, 200µg/mL DNase-free RNase A, 0.1%(v/v) Triton x-100). Cell cycle analysis was performed using a Cytomics™ FC500 (Coulter); data were analyzed using ModFit v3.1 software (Verity).

PLK3 = PLK3 (Homo sapiens, UniProt Q9H4B4); test: Biochemical kinase profiling PLK3
ERK1 = ERK1 (Homo sapiens, UniProt P27361); test: Biochemical kinase profiling ERK1
Aurora B = Aurora B (Homo sapiens, UniProt Q96GD4); test: Biochemical kinase profiling Aurora B
Aurora A = Aurora A (Homo sapiens, UniProt O14965); test: Biochemical kinase profiling Aurora A
HIPK2 = biological target: T1, HIPK2 (Homo sapiens, UniProt Q9H2X6); test: Millipore (UBI) kinase panel HIPK2; type: biochemical; conditions: generated at millipore (UBI) kinase panel
T1 construct: purchased Millipore/UBI

[2] = test system: Rb-deficient MDA-MB-468 breast cancer cells; test: Flow cytometry cell cycle distribution, MDA-MB-468; type: cell-based, human; conditions: MDA-MB-468, concentrations up to 2,500 nmol/L
AKT1 = AKT1 (Homo sapiens, UniProt P31749); test: Biochemical kinase profiling AKT1
PLK1 = PLK1 (Homo sapiens, UniProt P53350); test: Biochemical kinase profiling PLK1
[3] = design: method as in manuscript in preparation; conditions: ref manuscript in preparation; cited from earlier work
[4] = PK/PD model, colo-205 bearing mice, continuous dosing ref 37; cited from earlier work
cRaf = cRaf (Homo sapiens, UniProt P04049); test: Biochemical kinase profiling cRaf
colo-205 cells = test: DNA content / G1 arrest assay, colo-205 (Acumen); type: cell-based, human; conditions: for 4N cell population / S cell population / 2N cell population: Colo-205 cells
Experimental: (§3) Details for the cellular assays are provided in the supplemental materials. Briefly, image-based assays (Acumen Explorer, TPP LabTech) were used for compound screening. […] After treatment, the cells were washed, fixed and stained with antibodies to detect phosphoproteins and Propidium Iodide to monitor DNA content. The plates were then analyzed on an Acumen Explorer (TTP Labtech). The IC50 and EC50 values are determined by curve fitting to a 4-parameter logistic for each output using ACTIVITY BASE™ software.
(§4) Fixed cells are blocked with 1% bovine serum albumin (BSA, Amersham cat # RPN412V) for 30 minutes. […] Image analysis is based on cellular fluorescent signals for identifying cells in different subpopulations. Assay outputs are a percentage of each identified subpopulations; percent phosphoRB positive, percent 2 N, and percent 4 N. The IC50 and EC50 values are determined by curve fitting to a 4-parameter logistic for each output using ACTIVITY BASE™.

[5] = test system: MV4-11 acute myelocytic leukemia (AML) cells; test: Flow cytometry cell cycle distribution, MV4-11; type: cell-based, human
Experimental: as §1, §2

DRAK1 = biological target: T2, DRAK1 (Homo sapiens, UniProt Q9UEE5); test: Millipore (UBI) kinase panel DRAK1; type: biochemical; conditions: generated at millipore (UBI) kinase panel
T2 construct: purchased Millipore/UBI

[6] = test system: Colo-205 colorectal xenografts; test: Subcutaneous colo-205 xenograft antitumor activity; type: in vivo, mice; conditions: for Percent delta T/C, percent regression: Colo-205 colorectal
Experimental: (§5) All animal studies were performed in accordance with American Association for Laboratory Animal Care institutional guidelines, and all protocols were approved by the Eli Lilly and Company Animal Care and Use Committee. Tumor cell lines were grown, harvested, and resuspended in a 1:1 mixture of serum-free media and matrigel (BD Biosciences), and 5 × 10^6 cells were injected subcutaneously in the rear flank of 5-to-6-week-old CD1 nu/nu female mice (Charles River Laboratories for MV4-11, mice from Harlan Laboratories for others).
(§6) When the mean tumor volume was approximately 150–300 mm^3, animals were randomized by tumor volume and the compound was administered. […] Gemcitabine was formulated in saline and administered by intraperitoneal injection. Tumor volume and body weight were measured twice weekly. When tumors were collected for biomarker analysis, the animals were asphyxiated with CO2 and the xenograft tumors excised, flash frozen in liquid nitrogen, and stored at −80 °C until analyzed. For analysis, tumor volume data were transformed to a log scale to equalize variance across time and treatment groups. The log volume data were analyzed with a 2-way repeated measures analysis of variance by time and treatment using the MIXED procedure in SAS software (version 9.2). The correlation model for the repeated measures was spatial power. Treated groups are compared to the control group at each time point.

pERK A375 = test: pERK inhibition, A375; type: cell-based; conditions: Homo sapiens, A-375; read-out: pERK inh. A375 IC50
[7] = phase 1 study in advanced cancer patients ref 38, 39; cited from earlier work
U2OS cells = test: DNA content (cell cycle) in U2OS phenotypic assay; type: cell-based, human
Experimental: U20S cells are cultured in McCoy's 5A modified media (Invitrogen), supplemented with 10% FBS and plated in 96-well, flat-bottom plates at a density of 5,000 cells/well for incubation overnight. Compounds in DMSO stock solution are diluted serially 1:3 in McCoy's 5A media and incubated with cells for 16 hours for multiplexing pCTD/DNA content readouts. Cells are fixed with Prefer (Anatech LTD, MI) for 30 minutes at room temperature and permeated with 0.1% Triton-X 100 in PBS or cold methanol (-20°C) for 15 minutes, respectively. After blocking with 1% BSA/PBS for 30 min, cells are incubated with primary antibody (CTD p-Ser2, Covance) at 1:1000 dilution in 1% BSA/PBS containing 50 ug/ml RNAse ([…], Sigma) at 4°C overnight. […] Table S1 and Figure S1.

TRKA = biological target: T3, TRKA (Homo sapiens, UniProt P04629); test: Millipore (UBI) kinase panel TRKA; type: biochemical; conditions: generated at millipore (UBI) kinase panel
T3 construct: purchased Millipore/UBI

pRb (pSer780) colo-205 = test: Cellular assay for inhibition of p-Rb (Ser780), colo-205 (Acumen); type: cell-based; conditions: Homo sapiens, Fig. 2a, as given in discussion
Experimental: as §3, §4

[8] = Tolerability in colo-205 xenograft-bearing mice; type: in vivo; conditions: 56-day schedules
Experimental: as §5, with “others). Tumor volume was estimated by using the formula: vol = l × w^2 × […], where one and w are perpendicular measured diameters, and one is greater than or equal to w.” for “others).”
When the mean tumor volume was approximately 150–300 mm^3, animals were randomized by tumor volume and the compound was administered. […]. Gemcitabine was formulated in saline and administered by intraperitoneal injection. Tumor volume and body weight were measured twice weekly. When tumors were collected for biomarker analysis, the animals were asphyxiated with CO2 and the xenograft tumors excised, flash frozen in liquid nitrogen, and stored at −80 °C until analyzed. […] The log volume data were analyzed with a 2-way repeated measures analysis of variance by time and treatment using the MIXED procedure in SAS software (version 9.2). […]

[9] = test system: p-Rb, TopoIIα, pHH3 in colo-205 xenografts; conditions: 24 h after oral dosing
Jeko1 MCL xenografts = test: Subcutaneous Jeko1 xenograft antitumor activity; type: in vivo, mice; conditions: 100 mg/kg, day 45
Experimental: as §5
as §6, with “Treated groups are compared to the control group at each time point.” left out

H460 lung xenografts = test: Subcutaneous H460 xenograft antitumor activity; type: in vivo, mice; conditions: 50 mg/kg qdx21, day 35
Experimental: as §5
as §6, with “Treated groups are compared to the control group at each time point.” left out

[10] = test system: U87 MG glioblastoma xenografts; test: Subcutaneous U87 MG xenograft antitumor activity; type: in vivo, mice; conditions: 50 mg/kg qdx21, day 31
Experimental: as §5
as §6, with “Treated groups are compared to the control group at each time point.” left out

MV4-11 AML xenografts = test: Subcutaneous MV4-11 xenograft antitumor activity; type: in vivo, mice; conditions: 50 mg/kg qdx21, day 49
Experimental: as §5
as §6, with “Treated groups are compared to the control group at each time point.” left out

[11] = test system: RRM1 expression in Calu-6 xenografts; test: Western blot of RRM1 in Calu-6 xenograft tumors; type: in vivo, mice; conditions: 150 mg/kg dose, Calu-6 tumors 24 h after last dose
Experimental: as §6

Calu-6 lung xenografts = test: Subcutaneous Calu-6 xenograft antitumor activity; type: in vivo, mice; conditions: 50 mg/kg LY2835219 oral, 60 or 150 mg/kg gemcitabine i.p.
Experimental: as §5
as §6, with “Treated groups are compared to the control group at each time point.” left out

pCTD (pSer2) U2OS = test: Cellular assay for inhibition of RNA polymerase CTD (Ser2) phosphorylation (pCTD), U2OS; type: cell-based; conditions: Homo sapiens, n=1
[12] = colo-205 xenograft dose response

Chain of PLK1 (P53350 whole entry): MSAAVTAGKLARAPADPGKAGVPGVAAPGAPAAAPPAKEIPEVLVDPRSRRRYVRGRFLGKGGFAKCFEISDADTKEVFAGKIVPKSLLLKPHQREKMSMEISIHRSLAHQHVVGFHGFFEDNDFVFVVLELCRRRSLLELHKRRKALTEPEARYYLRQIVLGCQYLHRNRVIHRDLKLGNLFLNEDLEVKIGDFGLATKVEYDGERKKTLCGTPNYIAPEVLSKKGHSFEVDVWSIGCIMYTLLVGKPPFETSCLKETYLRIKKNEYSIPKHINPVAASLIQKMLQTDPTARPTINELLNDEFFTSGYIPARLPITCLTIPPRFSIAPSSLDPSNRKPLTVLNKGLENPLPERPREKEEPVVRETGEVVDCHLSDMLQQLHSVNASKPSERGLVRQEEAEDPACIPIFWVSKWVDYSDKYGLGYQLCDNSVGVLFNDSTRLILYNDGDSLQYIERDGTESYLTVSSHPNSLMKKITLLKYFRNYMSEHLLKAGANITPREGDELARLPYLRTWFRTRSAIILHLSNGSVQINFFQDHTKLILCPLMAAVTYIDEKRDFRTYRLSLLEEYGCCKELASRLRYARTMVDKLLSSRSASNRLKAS
Chain of Aurora A (O14965 whole entry): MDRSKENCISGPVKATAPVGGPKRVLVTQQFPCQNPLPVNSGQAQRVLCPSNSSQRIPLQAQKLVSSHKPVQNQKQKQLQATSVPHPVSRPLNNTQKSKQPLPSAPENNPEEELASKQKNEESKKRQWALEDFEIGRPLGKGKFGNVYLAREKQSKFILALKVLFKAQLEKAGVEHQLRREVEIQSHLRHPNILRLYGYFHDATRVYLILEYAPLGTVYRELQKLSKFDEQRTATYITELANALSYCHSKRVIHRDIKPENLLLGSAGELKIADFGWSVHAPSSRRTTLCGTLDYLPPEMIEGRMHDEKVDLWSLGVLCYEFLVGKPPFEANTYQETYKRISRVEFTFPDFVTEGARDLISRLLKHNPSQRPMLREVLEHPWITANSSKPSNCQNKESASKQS
Chain of Aurora B (Q96GD4 whole entry): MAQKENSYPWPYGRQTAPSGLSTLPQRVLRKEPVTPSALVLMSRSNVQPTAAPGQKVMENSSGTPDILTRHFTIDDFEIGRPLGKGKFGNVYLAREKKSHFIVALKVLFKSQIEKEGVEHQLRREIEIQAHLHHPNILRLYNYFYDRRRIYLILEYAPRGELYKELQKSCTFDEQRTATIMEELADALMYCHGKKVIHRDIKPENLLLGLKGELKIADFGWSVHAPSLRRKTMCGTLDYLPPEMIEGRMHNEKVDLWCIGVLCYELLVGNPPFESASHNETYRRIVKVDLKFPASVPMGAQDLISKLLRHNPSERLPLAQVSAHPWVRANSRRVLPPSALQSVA
Chain of AKT1 (P31749 whole entry): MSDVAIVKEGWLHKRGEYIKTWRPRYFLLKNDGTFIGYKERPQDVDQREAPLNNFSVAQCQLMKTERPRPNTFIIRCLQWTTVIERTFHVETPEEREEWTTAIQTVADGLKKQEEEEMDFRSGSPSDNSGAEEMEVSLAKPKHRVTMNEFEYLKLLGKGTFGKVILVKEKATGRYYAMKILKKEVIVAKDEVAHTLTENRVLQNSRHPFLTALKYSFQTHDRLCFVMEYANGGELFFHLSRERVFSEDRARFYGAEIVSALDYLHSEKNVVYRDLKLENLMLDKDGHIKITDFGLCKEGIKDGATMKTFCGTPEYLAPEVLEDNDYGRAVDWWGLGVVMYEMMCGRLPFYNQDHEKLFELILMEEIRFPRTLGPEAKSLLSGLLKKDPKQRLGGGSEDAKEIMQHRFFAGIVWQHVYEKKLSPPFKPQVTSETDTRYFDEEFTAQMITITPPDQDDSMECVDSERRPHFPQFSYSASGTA
T2 sequence (Q9UEE5 whole entry): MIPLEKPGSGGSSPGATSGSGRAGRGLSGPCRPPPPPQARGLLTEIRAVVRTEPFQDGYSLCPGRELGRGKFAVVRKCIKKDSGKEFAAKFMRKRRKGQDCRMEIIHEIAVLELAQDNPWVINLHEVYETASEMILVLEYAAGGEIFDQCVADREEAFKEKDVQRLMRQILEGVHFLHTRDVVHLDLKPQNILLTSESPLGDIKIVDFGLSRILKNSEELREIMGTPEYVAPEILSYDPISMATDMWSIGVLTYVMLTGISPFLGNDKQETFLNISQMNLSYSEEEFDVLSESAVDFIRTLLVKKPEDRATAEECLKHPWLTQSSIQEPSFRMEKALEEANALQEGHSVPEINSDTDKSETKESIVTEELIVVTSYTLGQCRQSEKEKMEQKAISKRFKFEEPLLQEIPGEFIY
Chain of bRaf (P15056 whole entry): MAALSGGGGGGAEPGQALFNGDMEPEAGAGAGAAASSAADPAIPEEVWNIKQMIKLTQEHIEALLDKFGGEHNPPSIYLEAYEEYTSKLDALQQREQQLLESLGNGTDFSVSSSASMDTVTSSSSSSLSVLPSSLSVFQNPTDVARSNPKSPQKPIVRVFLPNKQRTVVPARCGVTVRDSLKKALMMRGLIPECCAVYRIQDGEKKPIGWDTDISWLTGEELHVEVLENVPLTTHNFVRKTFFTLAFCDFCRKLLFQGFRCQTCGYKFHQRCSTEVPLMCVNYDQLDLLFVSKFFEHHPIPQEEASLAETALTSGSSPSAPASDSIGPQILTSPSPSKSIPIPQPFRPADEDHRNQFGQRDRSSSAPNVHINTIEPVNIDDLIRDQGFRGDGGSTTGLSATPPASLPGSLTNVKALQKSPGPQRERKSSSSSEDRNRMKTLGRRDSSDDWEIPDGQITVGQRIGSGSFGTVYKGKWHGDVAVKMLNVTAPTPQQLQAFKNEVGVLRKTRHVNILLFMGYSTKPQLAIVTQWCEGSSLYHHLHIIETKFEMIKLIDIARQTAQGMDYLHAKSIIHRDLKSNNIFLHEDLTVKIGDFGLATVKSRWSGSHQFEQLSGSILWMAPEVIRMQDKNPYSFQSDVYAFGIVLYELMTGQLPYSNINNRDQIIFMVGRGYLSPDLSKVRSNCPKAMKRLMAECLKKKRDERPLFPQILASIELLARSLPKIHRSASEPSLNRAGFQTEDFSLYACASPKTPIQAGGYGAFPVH
Chain of cRaf (P04049 whole entry): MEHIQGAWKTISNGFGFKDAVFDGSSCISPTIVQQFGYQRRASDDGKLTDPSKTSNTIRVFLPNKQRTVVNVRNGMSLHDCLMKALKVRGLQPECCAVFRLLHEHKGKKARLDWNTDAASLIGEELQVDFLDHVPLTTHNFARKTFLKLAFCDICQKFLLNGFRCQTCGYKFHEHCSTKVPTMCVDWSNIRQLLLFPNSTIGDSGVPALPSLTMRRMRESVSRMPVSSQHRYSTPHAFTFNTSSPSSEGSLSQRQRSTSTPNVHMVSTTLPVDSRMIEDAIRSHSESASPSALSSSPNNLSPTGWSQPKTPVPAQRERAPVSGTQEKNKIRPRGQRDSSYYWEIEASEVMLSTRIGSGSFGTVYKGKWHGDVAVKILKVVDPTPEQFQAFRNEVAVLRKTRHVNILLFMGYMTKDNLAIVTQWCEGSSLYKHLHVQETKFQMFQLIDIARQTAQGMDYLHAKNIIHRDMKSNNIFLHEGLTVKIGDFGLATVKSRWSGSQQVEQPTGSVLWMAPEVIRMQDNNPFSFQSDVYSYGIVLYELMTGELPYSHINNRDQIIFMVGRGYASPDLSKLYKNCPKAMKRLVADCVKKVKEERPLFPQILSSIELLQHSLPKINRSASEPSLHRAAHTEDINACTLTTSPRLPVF
Chain of ERK1 (P27361 whole entry): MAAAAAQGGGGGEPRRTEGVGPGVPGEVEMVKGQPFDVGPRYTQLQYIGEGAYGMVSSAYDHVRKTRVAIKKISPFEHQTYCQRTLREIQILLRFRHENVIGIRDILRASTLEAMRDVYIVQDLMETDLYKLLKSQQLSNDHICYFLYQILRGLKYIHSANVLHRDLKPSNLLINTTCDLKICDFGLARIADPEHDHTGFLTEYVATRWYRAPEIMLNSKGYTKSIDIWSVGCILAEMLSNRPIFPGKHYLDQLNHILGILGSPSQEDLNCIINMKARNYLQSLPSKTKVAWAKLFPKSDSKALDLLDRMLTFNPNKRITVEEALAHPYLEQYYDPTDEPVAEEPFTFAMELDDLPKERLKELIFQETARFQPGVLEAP
Chain of PLK3 (Q9H4B4 whole entry): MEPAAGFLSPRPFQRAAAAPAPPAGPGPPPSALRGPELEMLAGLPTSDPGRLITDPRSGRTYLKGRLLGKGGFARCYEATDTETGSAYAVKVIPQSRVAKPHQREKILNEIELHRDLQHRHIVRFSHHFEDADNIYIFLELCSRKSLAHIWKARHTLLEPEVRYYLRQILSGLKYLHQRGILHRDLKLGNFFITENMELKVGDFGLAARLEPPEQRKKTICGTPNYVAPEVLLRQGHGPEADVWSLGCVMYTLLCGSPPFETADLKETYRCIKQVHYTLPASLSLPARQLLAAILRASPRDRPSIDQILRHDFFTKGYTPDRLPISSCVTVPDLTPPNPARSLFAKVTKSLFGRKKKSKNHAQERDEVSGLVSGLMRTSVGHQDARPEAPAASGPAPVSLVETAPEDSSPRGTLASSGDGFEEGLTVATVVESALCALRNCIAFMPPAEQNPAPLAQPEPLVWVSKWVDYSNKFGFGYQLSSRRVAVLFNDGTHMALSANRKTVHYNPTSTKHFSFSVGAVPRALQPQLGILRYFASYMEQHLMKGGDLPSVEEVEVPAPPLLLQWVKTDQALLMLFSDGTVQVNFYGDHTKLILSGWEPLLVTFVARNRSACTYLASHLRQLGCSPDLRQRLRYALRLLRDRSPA

Compound: CCN1CCN(Cc2ccc(Nc3ncc(F)c(-c4cc(F)c5nc(C)n(C(C)C)c5c4)n3)nc2)CC1 [LY2835219, [5-(4-Ethyl-piperazin-1-ylmethyl)-pyridin-2-yl]-[5-fluoro-4-(7-fluoro-3-isopropyl-2-methyl-3H-benzoimidazol-5-yl)-pyrimidin-2-yl]-amine]
IC50 (bRaf): 6.33 µM
IC50 (pERK HCT116): > 20 µM
G1 arrest in Rb-proficient cells [1]: induced a G1 arrest
IC50 (PLK3): > 20 µM
IC50 (ERK1): > 20 µM
IC50 (Aurora B): > 20 µM
activity against Aurora B (Aurora B): Complete lack of activity
IC50 (Aurora A): > 20 µM
activity against Aurora A (Aurora A): Complete lack of activity
IC50 (HIPK2): 31 nM
G1 arrest in Rb-deficient cells [2]: no such effect
IC50 (AKT1): > 20 µM
IC50 (PLK1): > 20 µM
activity against PLK1 (PLK1): Complete lack of activity
ability to cross the blood–brain barrier [3]: effectively cross the blood–brain barrier
minimum steady state trough plasma concentration required for robust efficacy [4]: approximately 200 ng/mL; also recorded: approximately 400 nM
IC50 (cRaf): > 20 µM
4N cell population (colo-205 cells; 2.2 µM): 16%
S cell population (colo-205 cells; 2.2 µM): 0%
2N cell population (colo-205 cells; 6.6 µM): 75%
compound concentration up to which G1 arrest was sustained ([5]; MV4-11): up to 5,000 nmol/L
concentration at which maximum G1 arrest was seen ([5]; MV4-11, 24 h): ≥ 320 nmol/L
IC50 (DRAK1): 659 nM
minimally efficacious dose for tumor growth inhibition ([6]; colo-205 xenografts): 12.5 mg/kg
IC50 (pERK A375): > 20 µM
mean maximum steady state plasma concentration [7]: 562 nM
2N cell population (U2OS cells; 2.2 µM): 56%
S cell population (U2OS cells; 2.2 µM): 6%
2N cell population (U2OS cells; 6.6 µM): 44%
S cell population (U2OS cells; 6.6 µM): 7%
IC50 (TRKA): 1030 nM
IC50 (pRb (pSer780) colo-205): ~100 nM
histopathologic evaluation of intestinal tissue (jejunum, ileum, cecum) ([8]; days 41 and 69): no significant changes in intestinal tissue
hematologic changes ([8]; not dose-limiting): decreases in red cell mass and moderately reduced lymphocyte count
TED70 for in vivo inhibition of TopoII [9, 12]: 14 mg/kg
TED70 for in vivo inhibition of pRb [9, 12]: 14 mg/kg
doses at which p-Rb, TopoIIα and pHH3 were all significantly inhibited ([9]; colo-205 xenografts): ≥ 12.5 mg/kg

Compound: CC(=O)c1c(C)c2cnc(Nc3ccc(N4CCNCC4)cn3)nc2n(C2CCCC2)c1=O [PD0332991, 6-Acetyl-8-cyclopentyl-5-methyl-2-[[5-(1-piperazinyl)-2-pyridinyl]amino] pyrido[2,3-d] pyrimidin-7 (8H)-one]
Percent delta T/C, percent regression (Jeko1 MCL xenografts): 12%
Percent delta T/C, percent regression (H460 lung xenografts): 60%
Percent delta T/C, percent regression ([6]; 50 mg/kg (schedule not given), day 39): 7%
Percent delta T/C, percent regression ([6]; 100 mg/kg qdx21, day 35): −1%
Percent delta T/C, percent regression [10]: 26%
Percent delta T/C, percent regression (MV4-11 AML xenografts): 16%

Compound: Nc1ccn([C@@H]2O[C@H](CO)[C@@H](O)C2(F)F)c(=O)n1 [gemcitabine, 2′,2′-difluorodeoxycytidine hydrochloric salt]
increase of RRM1 compared to vehicle [11]: 75%
tumor growth inhibition, compound alone (Calu-6 lung xenografts): active in inhibiting tumor growth

EC50 (colo-205 cells; Homo sapiens, COLO 205, read-out: G1 arrest in Colo205 (increase in cells with 2N DNA content) EC50): > 20 µM
IC50 (pCTD (pSer2) U2OS): 147 nM
Compound: CN1CC[C@H](c2c(O)cc(O)c3c(=O)cc(-c4ccccc4Cl)oc23)[C@H](O)C1 [Flavopiridol]
2N cell population (colo-205 cells; 2.2 µM): 54%
4N cell population (colo-205 cells; 2.2 µM): 44%
S cell population (colo-205 cells; 2.2 µM): 2%
2N cell population (colo-205 cells; 6.6 µM): 50%
4N cell population (colo-205 cells; 6.6 µM): 49%
S cell population (colo-205 cells; 6.6 µM): 1%
2N cell population (U2OS cells; 2.2 µM): 22%
4N cell population (U2OS cells; 2.2 µM): 74%
S cell population (U2OS cells; 2.2 µM): 4%
2N cell population (U2OS cells; 6.6 µM): 23%
4N cell population (U2OS cells; 6.6 µM): 72%
S cell population (U2OS cells; 6.6 µM): 5%
